Data published in US20240400620A1, “Compositions Containing Coronavirus Proteins and Epitopes” (priority 2021, published 2024).

Test system: activated CD4+ T cells from MA10-infected HLA-DRB1*0101 Ifnar1^−/− mice
Assay type: cell-based

| Sequence | expansion of multifunctional IFNγ+/TNF+ CD4+ T cells | frequency of IFNγ-producing activated CD4+ T cells compared with unstimulated control cells |
| --- | --- | --- |
| VLSFELLHAPATVCG [S512-526] | capable of expanding |  |
| TSNFRVQPTESIVRF [S315-329] | capable of expanding |  |
| LNTLVKQLSSNFGAI [S959-973] |  | increase was significant |
| GTWLTYTGAIKLDDK (misc_feature - Nucleoprotein; Severe acute respiratory syndrome-related coronavirus) [N328-342] | capable of expanding |  |
| RWYFYYLGTGPEAGL (misc_feature - Nucleoprotein; Severe acute respiratory syndrome-related coronavirus) [N107-121] |  | increase was significant |
